According to PubChem BioAssay AID1918998 (Molecular Pharmacology Branch, DTP, NCI, 2023):
Blank lines part the entries; values can stand above or below the compound they belong to.

Tested on: 521955-158-R2-J5-PDC complex spheroid growth
Experiment: Anticancer human tumor 521955-158-R2-J5-PDC patient-derived pancreatic carcinoma cell line growth inhibition [AhR]
Conditions: for IC50: curve of first compound; for viability, T/C: stronger effect = lower value
In short: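 Spheroids combined tumor cells with HUVEC endothelial cells and human MSCs as stroma. AhR antagonists were paired with standard or investigational drugs, each dosed in half-log steps down from near clinical Cmax, or from 10 microM where Cmax was unknown.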
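Throughout, for viability, T/C: spheroids mix tumor cells with HUVEC endothelium and human MSC stroma; luminescence taken as viability surrogate after a week of drug exposure.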

IC50 (second compound 0.1 µM): > 100 nM
IC50 (second compound 0.316 µM): > 100 nM
IC50 (second compound 1 µM): > 100 nM
IC50 (second compound 3.16 µM): > 100 nM
IC50 (second compound 10 µM): > 100 nM
SMILES: Cn1ncnc1C1c2n[nH]c(=O)c3cc(F)cc(c23)NC1c1ccc(F)cc1 (stereo not given) + CC(CO)NC(=O)c1cc(-c2ccc(Cl)cc2)nn(-c2cnn(C)c2)c1=O
viability, T/C (second compound 0.1 µM, first compound 0.000316 µM): 99.2%
viability, T/C (second compound 0.1 µM, first compound 0.001 µM): 112%
viability, T/C (second compound 0.1 µM, first compound 0.00316 µM): 116%
viability, T/C (second compound 0.1 µM, first compound 0.01 µM): 108%
viability, T/C (second compound 0.1 µM, first compound 0.0316 µM): 105%
viability, T/C (second compound 0.1 µM, first compound 0.1 µM): 83%
viability, T/C (second compound 0.316 µM, first compound 0.000316 µM): 117%
viability, T/C (second compound 0.316 µM, first compound 0.001 µM): 107%
viability, T/C (second compound 0.316 µM, first compound 0.00316 µM): 120%
viability, T/C (second compound 0.316 µM, first compound 0.01 µM): 119%
viability, T/C (second compound 0.316 µM, first compound 0.0316 µM): 74.1%
viability, T/C (second compound 0.316 µM, first compound 0.1 µM): 103%
viability, T/C (second compound 1 µM, first compound 0.000316 µM): 103%
viability, T/C (second compound 1 µM, first compound 0.001 µM): 134%
viability, T/C (second compound 1 µM, first compound 0.00316 µM): 112%
viability, T/C (second compound 1 µM, first compound 0.01 µM): 114%
viability, T/C (second compound 1 µM, first compound 0.0316 µM): 106%
viability, T/C (second compound 1 µM, first compound 0.1 µM): 100%
viability, T/C (second compound 3.16 µM, first compound 0.000316 µM): 118%
viability, T/C (second compound 3.16 µM, first compound 0.001 µM): 121%
viability, T/C (second compound 3.16 µM, first compound 0.00316 µM): 86.1%
viability, T/C (second compound 3.16 µM, first compound 0.01 µM): 89.3%
viability, T/C (second compound 3.16 µM, first compound 0.0316 µM): 86.1%
viability, T/C (second compound 3.16 µM, first compound 0.1 µM): 78.5%
viability, T/C (second compound 10 µM, first compound 0.000316 µM): 104%
viability, T/C (second compound 10 µM, first compound 0.001 µM): 100%
viability, T/C (second compound 10 µM, first compound 0.00316 µM): 99.7%
viability, T/C (second compound 10 µM, first compound 0.01 µM): 82.6%
viability, T/C (second compound 10 µM, first compound 0.0316 µM): 60.1%
viability, T/C (second compound 10 µM, first compound 0.1 µM): 77.8%

IC50 (second compound 0.1 µM): > 300 nM
IC50 (second compound 0.316 µM): > 300 nM
IC50 (second compound 1 µM): > 300 nM
IC50 (second compound 3.16 µM): > 300 nM
IC50 (second compound 10 µM): > 300 nM
SMILES: Nc1ncn(C2CC(O)C(CO)S2)c(=O)n1 (stereo not given) + CC(CO)NC(=O)c1cc(-c2ccc(Cl)cc2)nn(-c2cnn(C)c2)c1=O
viability, T/C (second compound 0.1 µM, first compound 0.000949 µM): 79.4%
viability, T/C (second compound 0.1 µM, first compound 0.003 µM): 89.4%
viability, T/C (second compound 0.1 µM, first compound 0.00949 µM): 97.9%
viability, T/C (second compound 0.1 µM, first compound 0.03 µM): 89.9%
viability, T/C (second compound 0.1 µM, first compound 0.0949 µM): 72.6%
viability, T/C (second compound 0.1 µM, first compound 0.3 µM): 71.2%
viability, T/C (second compound 0.316 µM, first compound 0.000949 µM): 115%
viability, T/C (second compound 0.316 µM, first compound 0.003 µM): 107%
viability, T/C (second compound 0.316 µM, first compound 0.00949 µM): 107%
viability, T/C (second compound 0.316 µM, first compound 0.03 µM): 116%
viability, T/C (second compound 0.316 µM, first compound 0.0949 µM): 94.1%
viability, T/C (second compound 0.316 µM, first compound 0.3 µM): 84.4%
viability, T/C (second compound 1 µM, first compound 0.000949 µM): 107%
viability, T/C (second compound 1 µM, first compound 0.003 µM): 107%
viability, T/C (second compound 1 µM, first compound 0.00949 µM): 106%
viability, T/C (second compound 1 µM, first compound 0.03 µM): 108%
viability, T/C (second compound 1 µM, first compound 0.0949 µM): 73%
viability, T/C (second compound 1 µM, first compound 0.3 µM): 99.3%
viability, T/C (second compound 3.16 µM, first compound 0.000949 µM): 102%
viability, T/C (second compound 3.16 µM, first compound 0.003 µM): 116%
viability, T/C (second compound 3.16 µM, first compound 0.00949 µM): 141%
viability, T/C (second compound 3.16 µM, first compound 0.03 µM): 111%
viability, T/C (second compound 3.16 µM, first compound 0.0949 µM): 86.1%
viability, T/C (second compound 3.16 µM, first compound 0.3 µM): 73.1%
viability, T/C (second compound 10 µM, first compound 0.000949 µM): 73.8%
viability, T/C (second compound 10 µM, first compound 0.003 µM): 81.3%
viability, T/C (second compound 10 µM, first compound 0.00949 µM): 102%
viability, T/C (second compound 10 µM, first compound 0.03 µM): 76.9%
viability, T/C (second compound 10 µM, first compound 0.0949 µM): 88.3%
viability, T/C (second compound 10 µM, first compound 0.3 µM): 81.5%
